Measurements: paper PMC9203742 (Nature Communications, 2022)
Values joined by “and” are separate entries in the source; they are usually repeats but may differ in a detail not shown here. Identical values can stand only once.

Assays:
mGlu1(N264H) mutant = molecular target: T1, mGlu1(N264H) mutant (Rattus norvegicus, UniProt P23385, N264H); assay: Fura-2 Ca2+ imaging in HEK293 cells expressing mGlu1(N264H); format: cell-based; details: 10 µM LY367385, 1 µM FITM, 10 µM YM254890 or 1 µM U73122
T1 construct: expressed in transfected cells; host or cells: HEK293

[1] = molecular target: T2, cell-surface mGlu1 in cerebellar slices of mGlu1^+/+ mice (Mus musculus, UniProt P97772); assay: Confocal live imaging of cell-surface mGlu1 with FITM-Cy3 in acute cerebellar slices, mGlu1^+/+; format: binding
T2 construct: from tissue; host or cells: acute cerebellar slices of mGlu1+/+ (C57BL/6J) mice
Description: (§1) Sagittal cerebellar slices were cut with a microslicer (Linear slicer Pro7; DOSAKA EM) in cutting solution buffer and then incubated in ACSF gassed with 5% CO2 and 95% O2 at room temperature.
(§2) The cerebellar slices prepared from mGlu1^+/+ or mGlu1^CBC/CBC mice, were incubated with 10 nM FITM-Cy3 and 10 µg/mL Hoechst33342 for 30 min at room temperature in a humidified atmosphere of 5% CO2 and 95% O2. As a negative control, the cerebellar slices were incubated with 10 nM FITM-Cy3, 10 µg/mL Hoechst33342, and 500 nM FITM. Then, the slices were subjected to confocal live imaging using a confocal microscope (LSM900, Carl Zeiss). The fluorescence intensity of Cy3 at the molecular layer were quantified by ZEN blue software (Carl Zeiss).

[2] = molecular target: T3, cell-surface mGlu1 in cerebellar slices of mGlu1^CBC/CBC mice (Mus musculus, UniProt P97772, N264H); assay: Confocal live imaging of cell-surface mGlu1 with FITM-Cy3 in acute cerebellar slices, mGlu1^CBC/CBC; format: binding
T3 construct: from tissue; host or cells: acute cerebellar slices of homozygous mGlu1(N264H) knock-in (mGlu1CBC/CBC) mice
Description: as §1, §2

primary cortical neurons = assay: Fura-2 Ca2+ imaging (abnormal Ca2+ response) in cultured cortical neurons; details: co-treated 30 µM LY367385, 1 µM FITM or 10 µM U73122
[3] = 10 nM FITM-Cy3 with excess (500 nM) FITM
[4] = mGlu1+/+, relative to Ave of mGlu1+/+ FITM (-) = 1
[5] = mGlu1CBC/CBC, relative to Ave of mGlu1+/+ FITM (-) = 1

T2 sequence (P97772 19-1199 limits assumed): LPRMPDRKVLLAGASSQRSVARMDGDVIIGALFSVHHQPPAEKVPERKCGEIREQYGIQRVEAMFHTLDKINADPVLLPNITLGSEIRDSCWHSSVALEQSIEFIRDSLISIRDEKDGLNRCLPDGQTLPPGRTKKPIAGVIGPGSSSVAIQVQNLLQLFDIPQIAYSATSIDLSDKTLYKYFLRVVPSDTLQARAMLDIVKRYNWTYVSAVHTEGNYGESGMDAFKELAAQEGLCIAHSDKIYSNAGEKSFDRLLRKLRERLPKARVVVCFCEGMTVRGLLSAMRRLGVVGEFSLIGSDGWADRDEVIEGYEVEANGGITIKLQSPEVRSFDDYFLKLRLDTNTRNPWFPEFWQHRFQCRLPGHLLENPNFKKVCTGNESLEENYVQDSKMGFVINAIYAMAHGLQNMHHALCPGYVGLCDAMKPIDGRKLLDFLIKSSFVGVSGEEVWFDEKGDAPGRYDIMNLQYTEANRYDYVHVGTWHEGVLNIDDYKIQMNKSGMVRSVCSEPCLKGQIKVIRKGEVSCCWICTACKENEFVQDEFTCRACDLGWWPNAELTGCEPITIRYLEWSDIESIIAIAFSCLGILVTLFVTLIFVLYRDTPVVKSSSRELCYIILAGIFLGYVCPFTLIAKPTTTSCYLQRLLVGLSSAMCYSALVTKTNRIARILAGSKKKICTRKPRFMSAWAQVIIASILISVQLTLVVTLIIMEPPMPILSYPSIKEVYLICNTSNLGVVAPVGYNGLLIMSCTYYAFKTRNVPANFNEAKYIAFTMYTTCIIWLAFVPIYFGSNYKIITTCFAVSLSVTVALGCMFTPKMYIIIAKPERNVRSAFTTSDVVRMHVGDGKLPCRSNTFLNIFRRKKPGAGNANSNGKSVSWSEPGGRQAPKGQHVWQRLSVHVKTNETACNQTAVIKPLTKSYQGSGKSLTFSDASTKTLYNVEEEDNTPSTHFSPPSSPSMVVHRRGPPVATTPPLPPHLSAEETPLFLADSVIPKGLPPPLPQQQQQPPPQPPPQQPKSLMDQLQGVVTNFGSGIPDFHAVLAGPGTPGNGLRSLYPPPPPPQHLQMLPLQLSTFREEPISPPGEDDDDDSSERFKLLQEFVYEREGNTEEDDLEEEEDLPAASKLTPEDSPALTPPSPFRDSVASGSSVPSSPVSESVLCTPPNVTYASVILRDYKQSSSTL
T3 sequence (P97772 19-1199 N264H limits assumed): as the sequence (P97772 19-1199 limits assumed) above, with N246H counted along it
T1 sequence (P23385 19-1199 N264H): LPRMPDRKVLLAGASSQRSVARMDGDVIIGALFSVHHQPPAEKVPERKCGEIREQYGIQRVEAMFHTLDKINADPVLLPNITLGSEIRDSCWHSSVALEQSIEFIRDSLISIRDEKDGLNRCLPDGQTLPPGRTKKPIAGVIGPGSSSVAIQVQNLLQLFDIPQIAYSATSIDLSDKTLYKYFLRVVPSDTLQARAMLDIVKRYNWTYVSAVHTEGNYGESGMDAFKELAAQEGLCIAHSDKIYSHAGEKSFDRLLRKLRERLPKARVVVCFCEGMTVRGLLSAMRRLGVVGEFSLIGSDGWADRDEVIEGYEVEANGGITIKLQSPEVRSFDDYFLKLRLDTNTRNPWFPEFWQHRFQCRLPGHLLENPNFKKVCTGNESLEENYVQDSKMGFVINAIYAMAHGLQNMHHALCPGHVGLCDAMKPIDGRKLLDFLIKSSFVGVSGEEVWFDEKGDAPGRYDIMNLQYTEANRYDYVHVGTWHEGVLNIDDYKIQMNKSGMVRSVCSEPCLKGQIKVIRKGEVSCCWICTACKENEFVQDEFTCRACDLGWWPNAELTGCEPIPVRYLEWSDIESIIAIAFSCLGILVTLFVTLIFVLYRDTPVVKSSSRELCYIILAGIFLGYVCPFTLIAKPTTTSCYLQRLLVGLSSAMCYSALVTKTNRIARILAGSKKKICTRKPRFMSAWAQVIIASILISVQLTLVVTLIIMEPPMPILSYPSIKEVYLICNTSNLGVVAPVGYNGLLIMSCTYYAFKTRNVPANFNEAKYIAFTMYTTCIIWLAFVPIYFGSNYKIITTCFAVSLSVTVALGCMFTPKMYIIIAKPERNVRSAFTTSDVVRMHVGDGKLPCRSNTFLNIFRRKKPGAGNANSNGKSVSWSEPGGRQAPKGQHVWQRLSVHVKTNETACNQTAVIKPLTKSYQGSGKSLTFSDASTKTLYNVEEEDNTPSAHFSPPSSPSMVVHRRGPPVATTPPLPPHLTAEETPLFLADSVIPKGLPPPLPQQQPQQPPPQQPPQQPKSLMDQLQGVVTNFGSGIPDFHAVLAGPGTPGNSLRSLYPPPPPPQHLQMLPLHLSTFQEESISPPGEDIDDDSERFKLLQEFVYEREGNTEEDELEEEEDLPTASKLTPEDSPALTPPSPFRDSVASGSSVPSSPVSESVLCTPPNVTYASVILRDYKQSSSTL

Effect of pre-treated inhibitor on 10 µM Pd(bpy)-induced Ca2+ responses (mGlu1(N264H) mutant): inhibited
Competition of FITM-Cy3 fluorescence in the molecular layer [1, 3]: disappearance of fluorescence
FITM-Cy3 signal with FITM (+), Ave (Fig.5d) [1, 4]: 0.2072
Competition of FITM-Cy3 fluorescence in the molecular layer [2, 3]: disappearance of fluorescence
FITM-Cy3 signal with FITM (+), Ave (Fig.5d) [2, 5]: 0.1786
Compound: CC(C)Nc1cc(-c2csc(N(C)C(=O)c3ccc(F)cc3)n2)ncn1 [FITM]
FITM-Cy3 signal with FITM (+), individual values #1-#5 (Fig.5d) [1, 4]: 0.08371 and 0.2036 and 0.1822 and 0.2639 and 0.3024
FITM-Cy3 signal with FITM (+), individual values #1-#5 (Fig.5d) [2, 5]: 0.1218 and 0.08484 and 0.2076 and 0.2159 and 0.2628
Effect of inhibitor on 30 µM Pd(bpy)-induced [Ca2+]i elevation (primary cortical neurons): suppressed by neither
